# Results: ChEMBL document CHEMBL3774317, “Design and synthesis of novel tamoxifen analogues that avoid CYP2D6 metabolism” (Eur J Med Chem, 2016)
# Key:
# Format in all cases: functional
# [1] = Cytotoxicity against human UO31 cells assessed as cell growth at 10^-4 M after 48 hrs by SRB assay; details: UO-31, 48 h, read-out: Activity
# Malme-3M [2] = test: Cytotoxicity against human MALME-3M cells assessed as cell growth at 10^-8 M after 48 hrs by SRB assay; details: read-out: Activity
# NCI-H23 [3] = test: Cytotoxicity against human NCI-H23 cells assessed as cell growth at 10^-6 M after 48 hrs by SRB assay; details: NCI-H23, 48 h, read-out: Activity
# NCI-H522 = test: Cytotoxicity against human NCI-H522 cells assessed as cell growth at 10^-5 M after 48 hrs by SRB assay; details: NCI-H522, 48 h, read-out: Activity
# NCI-H460 [4] = test: Cytotoxicity against human NCI-H460 cells assessed as cell growth at 10^-6 M after 48 hrs by SRB assay; details: NCI-H460, 48 h, read-out: Activity
# [5] = Cytotoxicity against human SF268 cells assessed as cell growth at 10^-5 M after 48 hrs by SRB assay; details: SF-268, 48 h, read-out: Activity
# MDA-MB-231 [6] = test: Cytotoxicity against human MDA-MB-231 cells assessed as cell growth at 10^-7 M after 48 hrs by SRB assay; details: MDA-MB-231, 48 h, read-out: Activity
# [7] = Cytotoxicity against human SW620 cells assessed as cell growth at 10^-8 M after 48 hrs by SRB assay; details: SW-620, 48 h, read-out: Activity
# [8] = Cytotoxicity against human BT549 cells assessed as cell growth at 10^-5 M after 48 hrs by SRB assay; details: BT-549, 48 h, read-out: Activity
# KM12 = test: Cytotoxicity against human KM12 cells assessed as cell growth at 10^-8 M after 48 hrs by SRB assay; details: KM12, 48 h, read-out: Activity
# [9] = Cytotoxicity against human MOLT4 cells assessed as cell growth at 10^-7 M after 48 hrs by SRB assay; details: MOLT-4, 48 h, read-out: Activity
# EKVX = test: Cytotoxicity against human EKVX cells assessed as cell growth at 10^-8 M after 48 hrs by SRB assay; details: read-out: Activity
# [10] = Cytotoxicity against human OVCAR4 cells assessed as cell growth at […] after 48 hrs by SRB assay; details: OVCAR-4, 48 h, read-out: Activity
# MDA-MB-468 = test: Cytotoxicity against human MDA-MB-468 cells assessed as cell growth at 10^-7 M after 48 hrs by SRB assay; details: MDA-MB-468, 48 h, read-out: Activity
# SN12C [11] = test: Cytotoxicity against human SN12C cells assessed as cell growth at 10^-4 M after 48 hrs by SRB assay; details: read-out: Activity
# [12] = Cytotoxicity against human SNB75 cells assessed as cell growth at 10^-6 M after 48 hrs by SRB assay; details: SNB-75, 48 h, read-out: Activity
# [13] = Cytotoxicity against human HL-60(TB) cells assessed as cell growth at 5 uM after 48 hrs by SRB assay; details: HL-60, 48 h, read-out: Activity
# [14] = Cytotoxicity against human LOXIMVI cells assessed as cell growth at 5 nM after 48 hrs by SRB assay; details: LOX IMVI, read-out: Activity
# K562 [15] = test: Cytotoxicity against human K562 cells assessed as cell growth at 5 nM after 48 hrs by SRB assay; details: K562, 48 h, read-out: Activity
# [16] = Cytotoxicity against human RXF393 cells assessed as cell growth at 5 uM after 48 hrs by SRB assay; details: RXF 393, 48 h, read-out: Activity
# NCI-H23 [17] = test: Cytotoxicity against human NCI-H23 cells assessed as cell growth at 50 uM after 48 hrs by SRB assay; details: NCI-H23, 48 h, read-out: Activity
# [18] = Cytotoxicity against human Hs 578T cells assessed as cell growth at 50 uM after 48 hrs by SRB assay; details: read-out: Activity
# [19] = Cytotoxicity against human OVCAR3 cells assessed as cell growth at 50 uM after 48 hrs by SRB assay; details: OVCAR-3, 48 h, read-out: Activity
# MDA-MB-231 [20] = test: Cytotoxicity against human MDA-MB-231 cells assessed as cell growth at 5 nM after 48 hrs by SRB assay; details: MDA-MB-231, 48 h, read-out: Activity
# SN12C [21] = test: Cytotoxicity against human SN12C cells assessed as cell growth at 50 nM after 48 hrs by SRB assay; details: read-out: Activity
# SR = test: Cytotoxicity against human SR cells assessed as cell growth at 5 nM after 48 hrs by SRB assay; details: read-out: Activity
# A549 = test: Cytotoxicity against human A549 cells assessed as cell growth at 5 uM after 48 hrs by SRB assay; details: A549, 48 h, read-out: Activity
# 786-0 = test: Cytotoxicity against human 786-0 cells assessed as cell growth at 5 nM after 48 hrs by SRB assay; details: 786-0, 48 h, read-out: Activity
# [22] = Cytotoxicity against human IGROV1 cells assessed as cell growth at 5 nM after 48 hrs by SRB assay; details: IGROV-1, 48 h, read-out: Activity
# [23] = Cytotoxicity against human RPMI8226 cells assessed as cell growth at 5 nM after 48 hrs by SRB assay; details: RPMI-8226, 48 h, read-out: Activity
# NCI-H460 [24] = test: Cytotoxicity against human NCI-H460 cells assessed as cell growth at 5 nM after 48 hrs by SRB assay; details: NCI-H460, 48 h, read-out: Activity
# CCRF-CEM = test: Cytotoxicity against human CCRF-CEM cells assessed as cell growth at 0.5 uM after 48 hrs by SRB assay; details: read-out: Activity
# NCI-H322M = test: Cytotoxicity against human NCI-H322M cells assessed as cell growth at 0.5 uM after 48 hrs by SRB assay; details: read-out: Activity
# [25] = Cytotoxicity against human RPMI8226 cells assessed as cell growth at 50 nM after 48 hrs by SRB assay; details: RPMI-8226, 48 h, read-out: Activity
# NCI-H460 [26] = test: Cytotoxicity against human NCI-H460 cells assessed as cell growth at 5 uM after 48 hrs by SRB assay; details: NCI-H460, 48 h, read-out: Activity
# K562 [27] = test: Cytotoxicity against human K562 cells assessed as cell growth at 50 uM after 48 hrs by SRB assay; details: K562, 48 h, read-out: Activity
# [28] = Cytotoxicity against human RPMI8226 cells assessed as cell growth at 5 uM after 48 hrs by SRB assay; details: RPMI-8226, 48 h, read-out: Activity
# [29] = Cytotoxicity against human OVCAR8 cells assessed as cell growth at 5 uM after 48 hrs by SRB assay; details: OVCAR-8, 48 h, read-out: Activity
# Malme-3M [30] = test: Cytotoxicity against human MALME-3M cells assessed as cell growth at 5 uM after 48 hrs by SRB assay; details: read-out: Activity
# [31] = Cytotoxicity against human SF268 cells assessed as cell growth at 50 uM after 48 hrs by SRB assay; details: SF-268, 48 h, read-out: Activity
# [32] = Cytotoxicity against human NCI-ADR-RES cells assessed as cell growth at 50 nM after 48 hrs by SRB assay; details: read-out: Activity
# [33] = Cytotoxicity against human SNB75 cells assessed as cell growth at 0.5 uM after 48 hrs by SRB assay; details: SNB-75, 48 h, read-out: Activity
smiles,measurement,setting,value
C/C(=C(/c1ccc(O)cc1)c1ccc(OCCN2CCCC2)cc1)c1ccccc1,growth at 100 µM,[1],-92%
same,growth at 0.01 µM,Malme-3M [2],99%
same,growth at 1 µM,NCI-H23 [3],86%
same,growth at 10 µM,NCI-H522,-38%
same,growth at 1 µM,NCI-H460 [4],102%
same,growth at 10 µM,[5],37%
same,growth at 0.1 µM,MDA-MB-231 [6],116%
same,growth at 0.01 µM,[7],102%
same,growth at 10 µM,[8],24%
same,growth at 0.01 µM,KM12,102%
same,growth at 0.1 µM,[9],101%
same,growth at 0.01 µM,EKVX,91%
same,growth at 0.1 µM,[10],95%
same,growth at 0.1 µM,MDA-MB-468,97%
same,growth at 100 µM,SN12C [11],-69%
same,growth at 1 µM,[12],76%
CCCCCCCCCC(=O)Oc1ccc(/C(=C(/C)c2ccccc2)c2ccc(OCCN3CCCC3)cc2)cc1,growth at 5 µM,[13],94%
same,growth at 0.005 µM,[14],97%
same,growth at 0.005 µM,K562 [15],100%
same,growth at 5 µM,[16],73%
same,growth at 50 µM,NCI-H23 [17],-78%
same,growth at 50 µM,[18],-18%
same,growth at 50 µM,[19],-84%
same,growth at 0.005 µM,MDA-MB-231 [20],99%
same,growth at 0.05 µM,SN12C [21],101%
same,growth at 0.005 µM,SR,99%
same,growth at 5 µM,A549,99%
same,growth at 0.005 µM,786-0,102%
same,growth at 0.005 µM,[22],108%
same,growth at 0.005 µM,[23],99%
same,growth at 0.005 µM,NCI-H460 [24],102%
same,growth at 0.5 µM,CCRF-CEM,76%
same,growth at 0.5 µM,NCI-H322M,73%
same,growth at 0.05 µM,[25],100%
same,growth at 5 µM,NCI-H460 [26],92%
same,growth at 50 µM,K562 [27],-70%
same,growth at 5 µM,[28],86%
same,growth at 5 µM,[29],95%
same,growth at 5 µM,Malme-3M [30],81%
same,growth at 50 µM,[31],-72%
same,growth at 0.05 µM,[32],96%
same,growth at 0.5 µM,[33],68%
